Assay results taken from ChEMBL document CHEMBL3244056, “Synthesis and some pharmacological properties of [4-threonine, 7-glycine]oxytocin, [1-(L-2-hydroxy-3-mercaptopropanoic acid), 4-threonine, 7-glycine]oxytocin (hydroxy[Thr4, Gly7]oxytocin), and [7-Glycine]oxytocin, peptides with high oxytocic-antidiuretic selectivity” (J Med Chem, 1977).
Starred links: 1 amine or outer side, 2 acyl side, 3 side chain; linkers in the order of their positions; H or OH if unused. Positions of bridges follow the written chain, without caps; N, C: chain ends. Residues, ends and D or L forms follow the SMILES beside them. X1 = O=C([C@H](O)CS[*:2])[*:1]

Assays:
[1] = Oxytocic potency in rat by uterus assay; type: functional
[2] = Oxytocic potency in rat by uterus assay in presence of 0.5 mM Mg2+; type: functional
Rattus norvegicus [3] = species on record: Rattus norvegicus; assay: Ratio of oxytocic potency to antidiuretic activity in rat; parameters: species or system Urine
Rattus norvegicus [4] = species on record: Rattus norvegicus; assay: Vasopressor activity in rat; type: ADME, organism-based; conditions: in vivo
[5] = Retardation factor, Rf value of the compound in butan-1-ol-water (3.5% in acetic acid, 1.5% in pyridine) (1:1 v/v,upper phase) solvent system; type: physicochemical; conditions: buffer
[6] = Retardation factor, Rf value of the compound in butan-1-ol-acetic acid-water-pyridine (15:3:3:10v/v) solvent system; type: physicochemical; conditions: buffer
Rattus norvegicus [7] = species on record: Rattus norvegicus; assay: Oxytocic potency in rat assessed as milk ejection; type: functional
[8] = Retardation factor, Rf value of the compound in butan-1-ol-acetic acid-water (4:1:5 v/v, upper phase) solvent system; type: physicochemical; conditions: buffer
[9] = Oxytocic potency in rat by mammary strip assay; type: functional
Rattus norvegicus [10] = assay: Antidiuretic activity in iv dosed rat; type: ADME, organism-based, Urine; conditions: in vivo
[11] = Retardation factor, Rf value of the compound in butan-1-ol-acetic acid-water-ethyl acetate (1:1:1:1 v/v) solvent system; type: physicochemical; conditions: buffer
Oryctolagus cuniculus = species on record: Oryctolagus cuniculus; assay: Oxytocic potency in rabbit assessed as milk ejection; type: functional

Row | SMILES | Activity [1] [U/mg] | Activity [2] [U/mg] | Ratio (Rattus norvegicus [3]) | Activity (Rattus norvegicus [4]) [U/mg] | Rf [5] | Rf [6] | Activity (Rattus norvegicus [7]) [U/mg] | Rf [8] | Activity [9] [U/mg] | Activity (Rattus norvegicus [10]) [U/mg] | Rf [11] | Activity (Oryctolagus cuniculus) [U/mg]
1 | CC[C@H](C)[C@@H]1NC(=O)[C@H](Cc2ccc(O)cc2)NC(=O)[C@@H](N)CSSC[C@@H](C(=O)NCC(=O)N[C@@H](CC(C)C)C(=O)NCC(N)=O)NC(=O)[C@H](CC(N)=O)NC(=O)[C@H](CCC(N)=O)NC1=O (H-CYIQNCGLG-NH2; disulfide 1-6) | 65 | 965 | 16600 | < 0.01 | 0.17 | 0.75 | 392 | 0.3 | 478 | 0.0056 | 0.74 | –
2 | CC[C@H](C)[C@@H]1NC(=O)[C@H](Cc2ccc(O)cc2)NC(=O)[C@@H](N)CSSC[C@@H](C(=O)NCC(=O)N[C@@H](CC(C)C)C(=O)NCC(N)=O)NC(=O)[C@H](CC(N)=O)NC(=O)[C@H]([C@@H](C)O)NC1=O (H-CYITNCGLG-NH2; disulfide 1-6) | 166 | 857 | 83000 | < 0.01 | 0.27 | 0.83 | 802 | 0.37 | 490 | 0.002 | 0.85 | –
3 | CC[C@H](C)[C@@H]1NC(=O)[C@H](Cc2ccc(O)cc2)NC(=O)[C@@H](N)CSSC[C@@H](C(=O)N2CCC[C@H]2C(=O)N[C@@H](CC(C)C)C(=O)NCC(N)=O)NC(=O)[C@H](CC(N)=O)NC(=O)[C@H]([C@@H](C)O)NC1=O (H-CYITNCPLG-NH2; disulfide 1-6) | 923 | 719 | 510 | 0.43 | – | – | 543 | – | – | 1.8 | – | –
4 | CC[C@H](C)[C@@H]1NC(=O)[C@H](Cc2ccc(O)cc2)NC(=O)[C@H](O)CSSC[C@@H](C(=O)NCC(=O)N[C@@H](CC(C)C)C(=O)NCC(N)=O)NC(=O)[C@H](CC(N)=O)NC(=O)[C@H]([C@@H](C)O)NC1=O (YITNCGLG-NH2; linker N-5 via X1) | 218 | 1002 | 54500 | < 0.01 | 0.52 | 0.88 | 950 | 0.56 | 623 | 0.004 | 0.89 | –
5 | CC[C@H](C)[C@@H]1NC(=O)[C@H](Cc2ccc(O)cc2)NC(=O)[C@H](O)CSSC[C@@H](C(=O)N2CCC[C@H]2C(=O)N[C@@H](CC(C)C)C(=O)NCC(N)=O)NC(=O)[C@H](CC(N)=O)NC(=O)[C@H]([C@@H](C)O)NC1=O (YITNCPLG-NH2; linker N-5 via X1) | 4179 | 937 | 790 | 4.92 | – | – | 808 | – | 378 | 5.3 | – | –
6 | CC[C@H](C)[C@@H]1NC(=O)[C@H](Cc2ccc(O)cc2)NC(=O)[C@@H](N)CSSC[C@@H](C(=O)N2CCC[C@H]2C(=O)N[C@@H](CC(C)C)C(=O)NCC(N)=O)NC(=O)[C@H](CC(N)=O)NC(=O)[C@H](CCC(N)=O)NC1=O [OXYTOCIN] | 520 | 486 | – | – | – | – | – | – | 533 | 4 | – | 543
